From patent publication US5478816A, “Liquid vitamin formulations containing vitamin D esters” (Bristol-Myers Squibb Company, priority 1993, dated 1995)
Values joined by “and” are separate entries in the source; they are usually repeats but may differ in a detail not shown here. Identical values can stand only once.

Test: Short-term stability of vitamin D3 and vitamin D3 palmitate in liquid vitamin formulations at 40° C. (HPLC assay)
Format: physicochemical
Conditions: for Vitamin D content on storage: 40° C.
Procedure: In addition to the above, the vitamin formulation contains flavorants, stabilizer of vitamins, and about 1.0% polysorbate 80 as surfactant. As appreciated by the skilled artisan, appropriate overages of vitamins are included in order to assure meeting the label claims. The example composition contains 1.86:1 ratio by weight of glycerine to water. The pH is 5.0 which is adjusted by using an appropriate ratio of ascorbic acid to sodium ascorbate.
Vitamin D was analyzed by a HPLC assay as described by Matthew G. Sliva, et al., "Reversed-Phase Liquid Chromatographic Determination of Vitamin D in Infant Formulas and Enteral Nutritionals," J Assoc. Off. Anal. Chem., 75, 566, 1992, except that saponification conditions of 70° C. for 40 minutes were employed.
Stability of vitamins D3 and D3 palmitate were compared in various vitamin formulations containing different amounts of water and glycerin and at different pHs. The other ingredients and method of pH adjustment were as described in Example 1. The results are in Tables 2-5. Each batch number represents a different liquid vitamin formulation. The amount of glycerin varied between 650 and 850 mg/ml, depending upon the amount of water. "Vit" represents vitamin, "Desc." represents description,"Vit D3" represents vitamin D3, and "Vit D3P" or "D3 P" represents vitamin D3 palmitate. Table 1 lists the half-life (T50) values, i.e., time to degrade to 50% of the starting concentration of vitamins D3 and D3 palmitate at 40° C., These T50 values were calculated by fitting the data to first order degradation rate.

half-life (liquid vitamin formulation, pH 5.6, Time in Weeks for 50% Degradation (T50)): 113 days | Vitamin D content on storage (pH 3.2, 252 mg/ml water, age 0 weeks, Batch #1 (D3), #2 (D3 P)): 810 IU/ml | Vitamin D content on storage (pH 3.2, 252 mg/ml water, age 2 weeks, Batch #1 (D3), #2 (D3 P)): 715 IU/ml and 717 IU/ml | Vitamin D content on storage (pH 3.2, 252 mg/ml water, age 4 weeks, Batch #1 (D3), #2 (D3 P)): 668 IU/ml | Vitamin D content on storage (pH 3.2, 252 mg/ml water, age 6 weeks, Batch #1 (D3), #2 (D3 P)): 598 IU/ml and 612 IU/ml | Vitamin D content on storage (pH 3.2, 252 mg/ml water, age 8 weeks, Batch #1 (D3), #2 (D3 P)): 544 IU/ml and 574 IU/ml | Vitamin D content on storage (pH 3.2, 252 mg/ml water, age 12 weeks, Batch #1 (D3), #2 (D3 P)): 471 IU/ml and 443 IU/ml | Vitamin D content on storage (pH 3.2, 252 mg/ml water, age 16 weeks, Batch #1 (D3), #2 (D3 P)): 397 IU/ml and 385 IU/ml | Vitamin D content on storage (pH 3.2, 390 mg/ml water, age 0 weeks, Batch #3 (D3), #4 (D3 P)): 430 IU/ml and 425 IU/ml | Vitamin D content on storage (pH 3.2, 390 mg/ml water, age 1 week, Batch #3 (D3), #4 (D3 P)): 404 IU/ml and 405 IU/ml | Vitamin D content on storage (pH 3.2, 390 mg/ml water, age 2 weeks, Batch #3 (D3), #4 (D3 P)): 405 IU/ml and 403 IU/ml | Vitamin D content on storage (pH 3.2, 390 mg/ml water, age 4 weeks, Batch #3 (D3), #4 (D3 P)): 394 IU/ml and 397 IU/ml | Vitamin D content on storage (pH 3.2, 390 mg/ml water, age 8 weeks, Batch #3 (D3), #4 (D3 P)): 384 IU/ml and 381 IU/ml | Vitamin D content on storage (pH 3.2, 390 mg/ml water, age 12 weeks, Batch #3 (D3), #4 (D3 P)): 374 IU/ml and 370 IU/ml | Vitamin D content on storage (pH 3.2, 390 mg/ml water, age 16 weeks, Batch #3 (D3), #4 (D3 P)): 366 IU/ml and 362 IU/ml | Vitamin D content on storage (pH 4.2, 252 mg/ml water, age 0 weeks, Batch #5 (D3), #6 (D3 P)): 408 IU/ml and 405 IU/ml | Vitamin D content on storage (pH 4.2, 252 mg/ml water, age 1 week, Batch #5 (D3), #6 (D3 P)): 391 IU/ml and 386 IU/ml | Vitamin D content on storage (pH 4.2, 252 mg/ml water, age 2 weeks, Batch #5 (D3), #6 (D3 P)): 368 IU/ml and 371 IU/ml | Vitamin D content on storage (pH 4.2, 252 mg/ml water, age 4 weeks, Batch #5 (D3), #6 (D3 P)): 314 IU/ml and 316 IU/ml | Vitamin D content on storage (pH 4.2, 252 mg/ml water, age 8 weeks, Batch #5 (D3), #6 (D3 P)): 234 IU/ml | Vitamin D content on storage (pH 4.2, 252 mg/ml water, age 12 weeks, Batch #5 (D3), #6 (D3 P)): 145 IU/ml and 146 IU/ml | Vitamin D content on storage (pH 4.2, 252 mg/ml water, age 16 weeks, Batch #5 (D3), #6 (D3 P)): 145 IU/ml and 144 IU/ml | Vitamin D content on storage (pH 4.2, 390 mg/ml water, age 0 weeks, Batch #7 (D3), #8 (D3 P)): 414 IU/ml and 418 IU/ml | Vitamin D content on storage (pH 4.2, 390 mg/ml water, age 1 week, Batch #7 (D3), #8 (D3 P)): 397 IU/ml and 395 IU/ml | Vitamin D content on storage (pH 4.2, 390 mg/ml water, age 2 weeks, Batch #7 (D3), #8 (D3 P)): 395 IU/ml and 399 IU/ml | Vitamin D content on storage (pH 4.2, 390 mg/ml water, age 4 weeks, Batch #7 (D3), #8 (D3 P)): 379 IU/ml and 371 IU/ml | Vitamin D content on storage (pH 4.2, 390 mg/ml water, age 8 weeks, Batch #7 (D3), #8 (D3 P)): 353 IU/ml and 347 IU/ml | Vitamin D content on storage (pH 4.2, 390 mg/ml water, age 12 weeks, Batch #7 (D3), #8 (D3 P)): 339 IU/ml and 328 IU/ml | Vitamin D content on storage (pH 4.2, 390 mg/ml water, age 16 weeks, Batch #7 (D3), #8 (D3 P)): 319 IU/ml and 315 IU/ml | Vitamin D content on storage (pH 5.0, 252 mg/ml water, age 0 weeks, Batch #9 (D3), #10 (D3 P)): 426 IU/ml and 424 IU/ml | Vitamin D content on storage (pH 5.0, 252 mg/ml water, age 1 week, Batch #9 (D3), #10 (D3 P)): 394 IU/ml and 397 IU/ml | Vitamin D content on storage (pH 5.0, 252 mg/ml water, age 2 weeks, Batch #9 (D3), #10 (D3 P)): 363 IU/ml | Vitamin D content on storage (pH 5.0, 252 mg/ml water, age 4 weeks, Batch #9 (D3), #10 (D3 P)): 335 IU/ml and 329 IU/ml | Vitamin D content on storage (pH 5.0, 252 mg/ml water, age 8 weeks, Batch #9 (D3), #10 (D3 P)): 244 IU/ml | Vitamin D content on storage (pH 5.0, 252 mg/ml water, age 12 weeks, Batch #9 (D3), #10 (D3 P)): 201 IU/ml and 193 IU/ml | Vitamin D content on storage (pH 5.0, 252 mg/ml water, age 16 weeks, Batch #9 (D3), #10 (D3 P)): 123 IU/ml and 125 IU/ml | Vitamin D content on storage (pH 5.0, 390 mg/ml water (so in the source), age 0 weeks, Batch #11 (D3), #12 (D3 P)): 433 IU/ml and 437 IU/ml | Vitamin D content on storage (pH 5.0, 390 mg/ml water (so in the source), age 1 week, Batch #11 (D3), #12 (D3 P)): 404 IU/ml and 414 IU/ml | Vitamin D content on storage (pH 5.0, 390 mg/ml water (so in the source), age 2 weeks, Batch #11 (D3), #12 (D3 P)): 380 IU/ml and 383 IU/ml | Vitamin D content on storage (pH 5.0, 390 mg/ml water (so in the source), age 4 weeks, Batch #11 (D3), #12 (D3 P)): 364 IU/ml | Vitamin D content on storage (pH 5.0, 390 mg/ml water (so in the source), age 8 weeks, Batch #11 (D3), #12 (D3 P)): 306 IU/ml and 300 IU/ml | Vitamin D content on storage (pH 5.0, 390 mg/ml water (so in the source), age 12 weeks, Batch #11 (D3), #12 (D3 P)): 264 IU/ml and 263 IU/ml | Vitamin D content on storage (pH 5.0, 390 mg/ml water (so in the source), age 16 weeks, Batch #11 (D3), #12 (D3 P)): 188 IU/ml and 186 IU/ml | Vitamin D content on storage (pH 5.0, 390 mg/ml water, age 0 weeks, Batch #13 (D3), #14 (D3 P)): 593 IU/ml and 599 IU/ml | Vitamin D content on storage (pH 5.0, 390 mg/ml water, age 1 week, Batch #13 (D3), #14 (D3 P)): 573 IU/ml and 570 IU/ml | Vitamin D content on storage (pH 5.0, 390 mg/ml water, age 4 weeks, Batch #13 (D3), #14 (D3 P)): 554 IU/ml and 555 IU/ml | Vitamin D content on storage (pH 5.0, 390 mg/ml water, age 8 weeks, Batch #13 (D3), #14 (D3 P)): 510 IU/ml and 500 IU/ml | Vitamin D content on storage (pH 5.0, 390 mg/ml water, age 12 weeks, Batch #13 (D3), #14 (D3 P)): 525 IU/ml and 508 IU/ml | Vitamin D content on storage (pH 5.0, 390 mg/ml water, age 16 weeks, Batch #13 (D3), #14 (D3 P)): 490 IU/ml | Vitamin D content on storage (pH 5.0, 435 mg/ml water, age 0 weeks, Batch #15 (D3), #16 (D3 P)): 431 IU/ml and 433 IU/ml | Vitamin D content on storage (pH 5.0, 435 mg/ml water, age 1 week, Batch #15 (D3), #16 (D3 P)): 418 IU/ml | Vitamin D content on storage (pH 5.0, 435 mg/ml water, age 2 weeks, Batch #15 (D3), #16 (D3 P)): 395 IU/ml and 404 IU/ml | Vitamin D content on storage (pH 5.0, 435 mg/ml water, age 4 weeks, Batch #15 (D3), #16 (D3 P)): 403 IU/ml and 394 IU/ml | Vitamin D content on storage (pH 5.0, 435 mg/ml water, age 8 weeks, Batch #15 (D3), #16 (D3 P)): 364 IU/ml | Vitamin D content on storage (pH 5.0, 435 mg/ml water, age 12 weeks, Batch #15 (D3), #16 (D3 P)): 343 IU/ml and 338 IU/ml | Vitamin D content on storage (pH 5.0, 435 mg/ml water, age 16 weeks, Batch #15 (D3), #16 (D3 P)): 256 IU/ml
Compound: C=C1CC[C@H](OC(=O)CCCCCCCCCCCCCCC)C/C1=C/C=C1\CCC[C@]2(C)[C@@H]([C@H](C)CCCC(C)C)CC[C@@H]12 [Vitamin D3 P, vitamin D3 palmitate]
